The target in the first assay is recombinant Mcl-1 (residues 172-327) (Homo sapiens (Human), UniProt Q07820). The experiment in a line: Bak peptide fluorescence polarization anisotropy competition assay, Mcl-1. It is filed as binding. The note with it: Table 2, Ki range; FITC-Bak peptide 10 nM, Mcl-1 14 nM; read-out: Ki for inhibition of Mcl-1. On the technique in general: In fluorescence polarisation assays a small probe gives low polarisation when free and higher when bound to something large.
Sequence of recombinant Mcl-1 (residues 172-327) (Q07820 172-327): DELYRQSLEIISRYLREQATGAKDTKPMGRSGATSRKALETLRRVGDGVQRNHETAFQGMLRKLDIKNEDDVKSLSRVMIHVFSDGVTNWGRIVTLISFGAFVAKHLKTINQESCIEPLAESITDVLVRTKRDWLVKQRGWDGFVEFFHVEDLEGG
A word on the Ki: it is the dissociation constant of the complex between target and ligand, obtained from inhibition or displacement. For the compound `Cc1cc(OCCCc2c(C(=O)NS(=O)(=O)CCNC(=O)[C@@H]3Cc4ccccc4N3)[nH]c3cc(Cl)ccc23)cc(C)c1Cl` [Example 237, (S)-6-chloro-3-(3-(4-chloro-3,5-dimethylphenoxy)propyl)-N-((2-(indoline-2-carboxamido)ethyl)sulfonyl)-1H-indole-2-carboxamide], the Ki is no more than 100 nM.
As to `Cc1cc(OCCCc2c(C(=O)NS(=O)(=O)CCNC(=O)CCc3ccccc3)[nH]c3cc(Cl)ccc23)cc(C)c1Cl` [Example 230, 6-chloro-3-(3-(4-chloro-3,5-dimethylphenoxy)propyl)-N-((2-(3-phenylpropanamido)ethyl)sulfonyl)-1H-indole-2-carboxamide], the Ki was no more than 100 nM.
On to `Cc1cc(OCCCc2c(C(=O)NS(=O)(=O)c3ccccc3)[nH]c3c(-c4cccn4C)cccc23)cc(C)c1Cl` [Example 101, 3-(3-(4-chloro-3,5-dimethylphenoxy)propyl)-7-(1-methyl-1H-pyrrol-2-yl)-N-(phenylsulfonyl)-1H-indole-2-carboxamide], for which the Ki is no more than 100 nM.
For the compound `Cc1cc(OCCCc2c(C(=O)NS(=O)(=O)c3ccccc3)[nH]c3c(-c4cnccc4C(F)(F)F)cccc23)cc(C)c1Cl` [Example 103, 3-(3-(4-chloro-3,5-dimethylphenoxy)propyl)-N-(phenylsulfonyl)-7-(4-(trifluoromethyl)pyridin-3-yl)-1H-indole-2-carboxamide], the Ki was no more than 100 nM.
Same read-out and setting: the same measure for `Cc1cc(OCCCc2c(C(=O)NS(=O)(=O)CCNC(=O)c3cccn3C)[nH]c3ccccc23)cc(C)c1Cl` [Example 170, 3-(3-(4-chloro-3,5-dimethylphenoxy)propyl)-N-((2-(1-methyl-1H-pyrrole-2-carboxamido)ethyl)sulfonyl)-1H-indole-2-carboxamide]: no more than 100 nM; for `Cc1cc(OCCCc2c(C(=O)NS(=O)(=O)c3ccccc3)[nH]c3c(-c4ccsc4C)cccc23)cc(C)c1Cl` [Example 98, 3-(3-(4-chloro-3,5-dimethylphenoxy)propyl)-7-(2-methylthiophen-3-yl)-N-(phenylsulfonyl)-1H-indole-2-carboxamide]: no more than 100 nM.

The assay is the same for the next values; noted with them: read-out: Ki for inhibition of Mcl-1.
With `Cc1cc(OCCCc2c(C(=O)NS(=O)(=O)c3ccc4ccccc4c3)oc3ccccc23)cc(C)c1Cl` [Example 27, 3-(3-(4-chloro-3,5-dimethylphenoxy)propyl)-N-(naphthalen-2-ylsulfonyl)benzofuran-2-carboxamide], the Ki was 1000 to 9990 nM.
As to `Cc1ccccc1-c1cccc2c(CCCOc3cccc4ccccc34)c(C(=O)O)sc12` [Example 10, 3-(3-(naphthalen-1-yloxy)propyl)-7-(o-tolyl)benzo[b]thiophene-2-carboxylic acid], the Ki lay in the range of 101 to 299 nM.
Still for that read-out and setting: the same measure for `Cc1cc(OCCCc2c(C(=O)NS(C)(=O)=O)[nH]c3c(C)c(Br)ccc23)cc(C)c1Cl` [Example 120, 6-bromo-3-(3-(4-chloro-3,5-dimethylphenoxy)propyl)-7-methyl-N-(methylsulfonyl)-1H-indole-2-carboxamide]: 1000 to 9990 nM.
For the compound `CS(=O)(=O)NC(=O)c1[nH]c2ccccc2c1CCCOc1cccc2c1CCCC2` [Example 46, N-(methylsulfonyl)-3-(3-((5,6,7,8-tetrahydronaphthalen-1-yl)oxy)propyl)-1H-indole-2-carboxamide], the Ki is 1000 to 9990 nM.
For the compound `Cc1cc(OCCCc2c(C(=O)NS(=O)(=O)CCc3ccccc3)[nH]c3ccccc23)cc(C)c1Cl` [Example 140, 3-(3-(4-chloro-3,5-dimethylphenoxy)propyl)-N-(phenethylsulfonyl)-1H-indole-2-carboxamide], the inhibitory constant (Ki) fell in the range of 501 to 999 nM.
For the compound `Cc1cc(OCCCc2c(C(=O)NS(C)(=O)=O)[nH]c3ccc(Cl)cc23)cc(C)c1Cl` [Example 110, 5-chloro-3-(3-(4-chloro-3,5-dimethylphenoxy)propyl)-N-(methylsulfonyl)-1H-indole-2-carboxamide], the Ki was in the range of 501 to 999 nM.
As for `COc1cccc(OCCCc2c(C(=O)NS(C)(=O)=O)[nH]c3cc(Cl)ccc23)c1` [Example 108, 6-chloro-3-(3-(3-methoxyphenoxy)propyl)-N-(methylsulfonyl)-1H-indole-2-carboxamide], the Ki fell in the range of 1000 to 9990 nM.
The same measure, in the same setting: the same measure for `Cc1cc(OCCCc2c(C(=O)NS(=O)(=O)c3ccncc3)[nH]c3ccccc23)cc(C)c1Cl` [Example 134, 3-(3-(4-chloro-3,5-dimethylphenoxy)propyl)-N-(pyridin-4-ylsulfonyl)-1H-indole-2-carboxamide]: 301 to 500 nM.
For the compound `Cc1cc(OCCCc2c(C(=O)NS(C)(=O)=O)[nH]c3ccccc23)ccc1Cl` [Example 20, 3-(3-(4-chloro-3-methylphenoxy)propyl)-N-(methylsulfonyl)-1H-indole-2-carboxamide], the Ki fell in the range of 301 to 500 nM.
On to `CS(=O)(=O)NC(=O)c1[nH]c2ccccc2c1CCCOc1ccc(Br)cc1` [Example 36, 3-(3-(4-bromophenoxy)propyl)-N-(methylsulfonyl)-1H-indole-2-carboxamide], for which the Ki was 10000 to 50000 nM.
Take `Cc1occc1C(=O)NCCS(=O)(=O)NC(=O)c1[nH]c2cc(Cl)ccc2c1CCCOc1cccc2ccccc12` [Example 229, 6-chloro-N-((2-(2-methylfuran-3-carboxamido)ethyl)sulfonyl)-3-(3-(naphthalen-1-yloxy)propyl)-1H-indole-2-carboxamide]: the Ki was 301 to 500 nM.
`Cc1cc(OCCCc2c(C(=O)NS(=O)(=O)CCNC(=O)c3cccn3Cc3ccc(F)cc3)[nH]c3cc(Cl)ccc23)cc(C)c1Cl` [Example 242, 6-chloro-3-(3-(4-chloro-3,5-dimethylphenoxy)propyl)-N-((2-(1-(4-fluorobenzyl)-1H-pyrrole-2-carboxamido)ethyl)sulfonyl)-1H-indole-2-carboxamide]: the Ki lay within 101 to 299 nM.
For `CS(=O)(=O)NC(=O)c1[nH]c2ccc(Cl)cc2c1CCCOc1cccc2ccccc12` [Example 111, 5-chloro-N-(methylsulfonyl)-3-(3-(naphthalen-1-yloxy)propyl)-1H-indole-2-carboxamide], the Ki is 1000 to 9990 nM.
In the case of `Cc1cc(OCCCc2c(C(=O)NS(=O)(=O)CCNC(=O)c3cccnc3)[nH]c3ccccc23)cc(C)c1Cl` [Example 155, 3-(3-(4-chloro-3,5-dimethylphenoxy)propyl)-N-((2-(nicotinamido)ethyl)sulfonyl)-1H-indole-2-carboxamide], the Ki was 1000 to 9990 nM.
`CS(=O)(=O)NC(=O)c1[nH]c2cccc(C(F)(F)F)c2c1CCCOc1cccc2ccccc12` [Example 81, N-(methylsulfonyl)-3-(3-(naphthalen-1-yloxy)propyl)-4-(trifluoromethyl)-1H-indole-2-carboxamide]: the Ki lay in the range of 301 to 500 nM.
In the case of `Cc1cc(OCCCc2c(C(=O)NS(=O)(=O)CCN3C(=O)c4ccccc4C3=O)[nH]c3ccccc23)cc(C)c1Cl` [Example 197, 3-(3-(4-chloro-3,5-dimethylphenoxy)propyl)-N-((2-(1,3-dioxoisoindolin-2-yl)ethyl)sulfonyl)-1H-indole-2-carboxamide], the Ki was in the range of 501 to 999 nM.
`Cc1cc(OCCCc2c(C(=O)NS(=O)(=O)CCNC(=O)c3ccc4cc[nH]c4c3)[nH]c3ccccc23)cc(C)c1Cl` [Example 176, N-((2-(1H-indole-6-carboxamido)ethyl)sulfonyl)-3-(3-(4-chloro-3,5-dimethylphenoxy)propyl)-1H-indole-2-carboxamide]: the Ki was 101 to 299 nM.
As to `Cc1cc(OCCCc2c(C(=O)NS(=O)(=O)c3ccccc3)[nH]c3c(-c4cccs4)cccc23)cc(C)c1Cl` [Example 95, 3-(3-(4-chloro-3,5-dimethylphenoxy)propyl)-N-(phenylsulfonyl)-7-(thiophen-2-yl)-1H-indole-2-carboxamide], the Ki was 101 to 299 nM.
Take `Cc1cc(OCCCc2c(C(=O)NS(=O)(=O)C3CC3)[nH]c3cc(Cl)ccc23)cc(C)c1Cl` [Example 65, 6-chloro-3-(3-(4-chloro-3,5-dimethylphenoxy)propyl)-N-(cyclopropylsulfonyl)-1H-indole-2-carboxamide]: the Ki lay within 101 to 299 nM.
Regarding `Cc1cc(OCCCc2c(C(=O)NS(C)(=O)=O)[nH]c3cccc(C(F)(F)F)c23)cc(C)c1Cl` [Example 82, 3-(3-(4-chloro-3,5-dimethylphenoxy)propyl)-N-(methylsulfonyl)-4-(trifluoromethyl)-1H-indole-2-carboxamide], the Ki fell in the range of 101 to 299 nM.
As for `Cc1cc(OCCCc2c(C(=O)NS(=O)(=O)CCNC(=O)c3cncn3C)[nH]c3ccccc23)cc(C)c1Cl` [Example 187, 3-(3-(4-chloro-3,5-dimethylphenoxy)propyl)-N-((2-(1-methyl-1H-imidazole-5-carboxamido)ethyl)sulfonyl)-1H-indole-2-carboxamide], the inhibitory constant (Ki) fell in the range of 1000 to 9990 nM.
For the compound `Cc1cc(OCCCc2c(C(=O)NS(=O)(=O)CCNC(=O)C3CCCCC3)[nH]c3ccccc23)cc(C)c1Cl` [Example 150, 3-(3-(4-chloro-3,5-dimethylphenoxy)propyl)-N-((2-(cyclohexanecarboxamido)ethyl)sulfonyl)-1H-indole-2-carboxamide], the Ki lay in the range of 101 to 299 nM.
As to `CS(=O)(=O)NC(=O)c1[nH]c2cc(Cl)ccc2c1CCCOc1cccc2c1CCC2` [Example 106, 6-chloro-3-(3-((2,3-dihydro-1H-inden-4-yl)oxy)propyl)-N-(methylsulfonyl)-1H-indole-2-carboxamide], the Ki lay within 1000 to 9990 nM.
On to `Cc1cc(OCCCc2c(C(=O)NS(=O)(=O)CCNC(=O)c3cccc(Oc4ccccc4)c3)[nH]c3cc(Cl)ccc23)cc(C)c1Cl` [Example 231, 6-chloro-3-(3-(4-chloro-3,5-dimethylphenoxy)propyl)-N-((2-(3-phenoxybenzamido)ethyl)sulfonyl)-1H-indole-2-carboxamide], for which the Ki lay within 101 to 299 nM.
Take `Cc1cc(OCCCc2c(C(=O)NS(C)(=O)=O)[nH]c3cc(Cl)ccc23)ccc1Cl` [Example 53, 6-chloro-3-(3-(4-chloro-3-methylphenoxy)propyl)-N-(methylsulfonyl)-1H-indole-2-carboxamide]: the inhibition constant Ki is 301 to 500 nM.
For `O=C(NS(=O)(=O)C1CC1)c1sc2ccccc2c1CCCOc1cccc2ccccc12` [Example 67, N-(cyclopropylsulfonyl)-3-(3-(naphthalen-1-yloxy)propyl)benzo[b]thiophene-2-carboxamide], the Ki was 1000 to 9990 nM.

Source of the values: patent US10844032B2, “Substituted benzofuran, benzothiophene and indole Mcl-1 inhibitors” (Vanderbilt University, priority 2012, dated 2020).
